The target in one data set is CYP3A4 (Homo sapiens, UniProt P08684). Description: In vitro metabolism of unconjugated MMAE. Format: in vitro ADME. The conditions noted are these: in vitro data. An excerpt: (§1) Based on a validated physiological-based PK model simulation, strong CYP3A4 inhibitors may increase the exposure (e.g., area under the concentration-time curve) of unconjugated MMAE by ˜50% while acMMAE PK is not affected. Concomitant medications that are strong CYP3A4 inhibitors are considered cautionary as they may potentially lead to adverse reactions, which require close monitoring. […] Concomitant medications that are P-gp inhibitors are considered cautionary as they may potentially lead to adverse reactions, which require close monitoring.

Another data set concerns the target P-glycoprotein (P-gp) (Homo sapiens, UniProt P08183). Put plainly: P-glycoprotein substrate / inhibitor status. It is filed as in vitro ADME.
Excerpt: as §1

This note sets out measurements from patent publication US20240336697A1, “METHODS OF USING ANTI-CD79B IMMUNOCONJUGATES TO TREAT DIFFUSE LARGE B-CELL LYMPHOMA” (Genentech, Inc., priority 2021, published 2024).

Molecules are shown by their SMILES. Where a SMILES comes first, the peptide text is derived from it. [ ]: non-standard residue; d: D form. The star is where a group is joined. Dolaproine = CO[C@@H]([C@@H]1CCCN1)[C@@H](C)C(=O)O; Dil = CC[C@H](C)[C@H](NC)[C@@H](CC(=O)O)OC; X1 = C[C@@H](N*)[C@@H](O)c1ccccc1; NMeV = CN[C@H](C(=O)O)C(C)C

P-glycoprotein (P-gp), sequence (P08183 whole entry): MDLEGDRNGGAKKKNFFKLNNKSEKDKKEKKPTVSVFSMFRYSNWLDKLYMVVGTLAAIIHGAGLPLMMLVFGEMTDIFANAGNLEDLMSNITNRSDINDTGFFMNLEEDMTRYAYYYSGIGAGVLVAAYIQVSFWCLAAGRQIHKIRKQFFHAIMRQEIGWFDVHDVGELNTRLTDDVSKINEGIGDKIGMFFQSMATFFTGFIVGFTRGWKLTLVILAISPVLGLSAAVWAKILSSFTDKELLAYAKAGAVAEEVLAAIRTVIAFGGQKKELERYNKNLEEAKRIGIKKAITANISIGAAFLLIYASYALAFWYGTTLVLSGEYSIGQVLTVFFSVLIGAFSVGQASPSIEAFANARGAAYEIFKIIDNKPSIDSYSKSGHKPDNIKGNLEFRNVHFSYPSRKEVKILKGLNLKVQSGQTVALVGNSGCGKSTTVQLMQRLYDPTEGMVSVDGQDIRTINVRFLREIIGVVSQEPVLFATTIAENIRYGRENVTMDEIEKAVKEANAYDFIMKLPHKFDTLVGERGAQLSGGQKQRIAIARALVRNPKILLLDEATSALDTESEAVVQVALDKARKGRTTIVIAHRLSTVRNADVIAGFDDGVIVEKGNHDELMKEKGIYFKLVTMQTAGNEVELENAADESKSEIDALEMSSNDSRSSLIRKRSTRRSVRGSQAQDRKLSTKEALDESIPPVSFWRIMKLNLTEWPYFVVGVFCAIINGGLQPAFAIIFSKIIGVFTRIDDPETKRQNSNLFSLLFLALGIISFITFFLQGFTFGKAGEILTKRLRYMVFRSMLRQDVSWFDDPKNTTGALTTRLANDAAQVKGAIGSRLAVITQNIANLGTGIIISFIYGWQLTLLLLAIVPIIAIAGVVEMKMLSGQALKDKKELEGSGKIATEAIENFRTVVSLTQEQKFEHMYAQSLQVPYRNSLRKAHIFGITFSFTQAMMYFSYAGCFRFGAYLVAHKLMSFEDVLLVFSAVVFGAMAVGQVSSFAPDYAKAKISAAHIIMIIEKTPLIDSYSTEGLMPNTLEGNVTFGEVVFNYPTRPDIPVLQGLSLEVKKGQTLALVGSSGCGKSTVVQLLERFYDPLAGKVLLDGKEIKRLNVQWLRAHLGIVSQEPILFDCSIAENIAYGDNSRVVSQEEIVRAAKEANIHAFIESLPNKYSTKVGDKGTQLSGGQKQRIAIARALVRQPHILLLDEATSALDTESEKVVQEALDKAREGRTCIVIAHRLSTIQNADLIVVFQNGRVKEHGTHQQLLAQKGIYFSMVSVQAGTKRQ
CYP3A4, sequence (P08684 whole entry): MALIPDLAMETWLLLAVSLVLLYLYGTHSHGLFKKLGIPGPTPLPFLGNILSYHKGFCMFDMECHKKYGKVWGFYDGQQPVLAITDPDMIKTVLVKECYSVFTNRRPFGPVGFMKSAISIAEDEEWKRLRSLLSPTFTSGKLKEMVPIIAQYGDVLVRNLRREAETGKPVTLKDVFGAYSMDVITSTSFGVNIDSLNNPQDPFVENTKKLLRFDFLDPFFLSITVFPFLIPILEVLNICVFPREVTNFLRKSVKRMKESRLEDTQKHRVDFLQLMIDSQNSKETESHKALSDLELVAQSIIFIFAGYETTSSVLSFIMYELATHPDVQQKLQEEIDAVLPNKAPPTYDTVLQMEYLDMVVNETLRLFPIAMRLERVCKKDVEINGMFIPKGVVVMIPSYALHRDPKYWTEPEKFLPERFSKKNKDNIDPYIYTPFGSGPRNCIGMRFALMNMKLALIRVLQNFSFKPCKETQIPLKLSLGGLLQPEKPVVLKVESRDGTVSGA

Turning to `CC[C@H](C)[C@@H]([C@@H](CC(=O)N1CCC[C@H]1[C@H](OC)[C@@H](C)C(=O)N[C@H](C)[C@@H](O)c1ccccc1)OC)N(C)C(=O)[C@@H](NC(=O)[C@@H](NC)C(C)C)C(C)C` [MMAE, monomethylauristatin E] (H-[NMeV]V[Dil][Dolaproine]-X1), the “metabolism of unconjugated MMAE by CYP3A4” value at CYP3A4 is “mainly metabolized by CYP3A4”. In addition, on P-glycoprotein (P-gp), the P-gp inhibitor result is given as “not a P-gp inhibitor”.
